Reference: patent US20050054559A1, “Compounds for sustained release of orally delivered drugs” (priority 2000, published 2005)

Columns and labels:
[1] = Caco-2 homogenate S9 stability; format: in vitro ADME; conditions: substrate 5.0 μM, no cofactors, 37° C.
Method: Caco-2 Homogenate S9 Stability. Caco-2 cells were grown for 21 days prior to harvesting. Culture medium was removed and cell monolayers were rinsed and scraped off into ice-cold 10 mM sodium phosphate/0.15 M potassium chloride, pH 7.4. Cells were lysed by sonication at 4° C. using a probe sonicator. Lysed cells were then transferred into 1.5 mL centrifuge vials and centrifuged at 9000 g for 20 min at 4° C. The resulting supernatant (Caco-2 cell homogenate S9 fraction) was aliquoted into 0.5 mL vials and stored at −80° C. until used.
For stability studies, prodrug (5 μM) was incubated in Caco-2 homogenate S9 fraction (0.5 mg protein per mL) for 60 min at 37° C. Concentrations of intact prodrug and released drug were determined at zero time and 60 minutes using LC/MS/MS.
Concentrations of (2), (4), (7g) or Phe-Gabapentin in tissue extracts were determined by direct injection onto an API 2000 LC/MS/MS equipped with an Agilent 1100 binary pump and autosampler. Separation was achieved using a 3.5 μm Zorbax Ellipse XDB-C8 4.4×150 mm column heated to 45° C. during the analysis. The mobile phases were: 0.1% formic acid in water (A) and 0.1% formic acid in acetonitrile (B). The gradient condition was: 2% B for 0.5 min, increasing to 90% B in 2.0 min, maintained for 2.5 min and returning to 2% B for 2 min. […] Peaks were integrated using Analyst quantitation software. […]

Aminopeptidase 1 = target: T1, Aminopeptidase 1 (Streptomyces griseus subsp. griseus, UniProt P80561); assay: Aminopeptidase stability; format: in vitro ADME; conditions: substrate 5.0 μM, no cofactors, pH 8.0, 37° C.
T1 construct: purchased Sigma A-9934
Method: Aminopeptidase Stability: Aminopeptidase 1 (Sigma catalog # A-9934) was diluted in deionised water to a concentration of 856 units/mL. Stability studies were conducted by incubating prodrug (5 μM) with 0.856 units/mL aminopeptidase 1 in 50 mM Tris-HCl buffer at pH 8.0 and 37° C. Concentrations of intact prodrug and released drug were determined at zero time and 60 minutes using LC/MS/MS.
Concentrations of (2), (4), (7g) or Phe-Gabapentin in tissue extracts were determined by direct injection onto an API 2000 LC/MS/MS equipped with an Agilent 1100 binary pump and autosampler. Separation was achieved using a 3.5 μm Zorbax Ellipse XDB-C8 4.4×150 mm column heated to 45° C. during the analysis. The mobile phases were: 0.1% formic acid in water (A) and 0.1% formic acid in acetonitrile (B). The gradient condition was: 2% B for 0.5 min, increasing to 90% B in 2.0 min, maintained for 2.5 min and returning to 2% B for 2 min. A TurbolonSpray source was used on the API 2000. The analysis was performed in the positive ion mode and MRM transitions of 709.5/172.1 and 172.0/137.2 were used in the analysis of Cholyl-Phe-Gabapentin (7g) and gabapentin (2) respectively. Ten microliters of the sample extracts were injected. Peaks were integrated using Analyst quantitation software. The method was linear for (7g) or (2) over the concentration range 0.01 to 12.5 μg/mL and 0.002 to 2.5 μg/mL respectively.

[2] = In vitro enzymatic release in human intestine S9; conditions: Human Intestine S9 (0.5 mg/mL); substrate 2.0 μM; NADPH; 37° C.
[3] = In vitro enzymatic release in rat liver S9; conditions: Rat Liver S9 (0.5 mg/mL); substrate 2.0 μM; NADPH; 37° C.
[4] = In vitro enzymatic release in human liver S9; conditions: Human Liver S9 (0.5 mg/mL); substrate 2.0 μM; NADPH; 37° C.
[5] = In vitro enzymatic release in rat plasma; conditions: substrate 2.0 μM, no cofactors, 37° C.
pancreatin = assay: Pancreatin stability; format: in vitro ADME, porcine; conditions: gabapentin (2) released by 1% (w/v) pancreatin; prodrug 5 μM; pH 7.5; 37° C.; 60 min
Method: Pancreatin Stability: Stability studies were conducted by incubating prodrug (5 μM) with 1% (w/v) pancreatin (Sigma, P-1625, from porcine pancreas) in 0.025 M Tris buffer containing 0.5 M NaCl (pH 7.5) at 37° C. for 60 min. The reaction was stopped by addition of 2 volumes of methanol. After centrifugation at 14,000 rpm for 10 min, the supernatant was removed and analyzed by LC/MS/MS.

[6] = Pharmacokinetics of N-phthaloylglycine prodrug (61) in rats (Example 42); format: in vivo, rat; conditions: oral (61) 240 mg/kg, post dosing
Method: The pharmacokinetics of the N-phthaloylglycine prodrug (61) is examined in rats. […] Serial blood samples are obtained over 24 hours following dosing and blood is processed for plasma by centrifugation. Plasma samples are stored at −80° C. until analyzed. Concentrations of N-phthaloylglycine or (61) in plasma samples are determined by LC/MS/MS.

IBAT [7] = target: T2, IBAT (Homo sapiens, UniProt Q12908); assay: Inhibition of radiolabeled taurocholate uptake in IBAT-transfected CHO cells; format: cell-based; set-up: expressed in transfected cells; host or cells: CHO cells; conditions: radiolabeled competition assay in transporter-expressing CHO cells
Method: (§1) CHO cells transfected with either the IBAT or LBAT transporter were seeded into 96-well microtiter plates at 100,000 cells/well in 100 μL DMEM containing 10% serum, glutamine and Penstrep. After overnight incubation the media was removed and test compound (25 μL) added at 2× the final desired concentration. Tritiated taurocholate (50,000 CPM/well) was diluted with cold substrate to a final concentration of 5 μM and 25 μL/well of this mixture was added to the plate. After incubating for 1 h at room temperature the solution was removed and the plate washed 4× with PBS at 4° C. 200 μL/well of scintillant is added and the plate then read in a Wallac microbeta counter. The inhibition data is processed by standard methods to calculate an inhibition constant Ki for the test compound.

[8] = In vitro enzymatic release in human plasma; conditions: substrate 2.0 μM, no cofactors, 37° C.
LBAT = target: T3, LBAT (Homo sapiens, UniProt Q14973); assay: Inhibition of radiolabeled taurocholate uptake in LBAT-transfected CHO cells; format: cell-based; conditions: radiolabeled competition assay in transporter-expressing CHO cells
T3 construct: expressed in transfected cells; host or cells: CHO cells
Method: as §1

IBAT [9] = target: T2, IBAT; assay: Electrogenic transport in Xenopus oocytes expressing IBAT; format: cell-based; conditions: relative to glycodeoxycholate
Description: RNA preparation: Human IBAT and LBAT Transporter cDNAs were subcloned into a modified pGEM plasmid that contains 5′ and 3′ untranslated sequences from the Xenopus β-actin gene. These sequences increase RNA stability and protein expression. Plasmid cDNA was linearized and used as template for in vitro transcription (Epicentre Technologies transcription kit, 4:1 methylated:non-methylated GTP).
Xenopus oocyte isolation. Xenopus laevis frogs were anesthetized by immersion in Tricaine ([…] in deionized water) for 15 min. Oocytes were removed and digested in frog ringer solution (90 mM NaCl, 2 mM KCl, 1 mM MgCl2, 10 mM NaHEPES, pH 7.45, no CaCl2) with 1 mg/mL collagenase (Worthington Type 3) for 80-100 min with shaking. The oocytes were washed 6 times, and the buffer changed to frog ringer solution containing CaCl2 (1.8 mM). Remaining follicle cells were removed if necessary. Cells were incubated at 16° C., and each oocyte injected with […] RNA in […] solution.
Electrophysiology measurements. Transport currents were measured 2-14 days after injection, using a standard two-electrode electrophysiology set-up (Geneclamp 500 amplifier, Digidata 1320/PCLAMP software and ADInstruments hardware and software were used for signal acquisition). Electrodes ([…]) were microfabricated using a Sutter Instrument puller and filled with 3M KCl. The bath was directly grounded (transporter currents were less than 0.3 μA). Bath flow was controlled by an automated perfusion system (ALA Scientific Instruments, solenoid valves).
For transporter pharmacology, oocytes were clamped at −60 to −90 mV, and continuous current measurements acquired using PowerLab Software and an ADInstruments digitizer. Current signals were lowpass filtered at 20 Hz and acquired at 4-8 Hz. All bath and drug-containing solutions were frog ringers solution containing CaCl2. Drugs were applied for 10-30 seconds until the induced current reached a new steady-state level, followed by a control solution until baseline currents returned to levels that preceded drug application. The difference current (baseline subtracted from peak current during drug application) reflected the net movement of charge resulting from electrogenic transport and was directly proportional to tranport rate. Recordings were made from a single oocyte for up to 60 min, enabling 30-40 separate compounds to be tested per oocyte. […]. Using this normalization procedure Vmax (i.e. maximal induced current) for different compounds tested on different oocytes could be compared.

T2 sequence (Q12908 whole entry): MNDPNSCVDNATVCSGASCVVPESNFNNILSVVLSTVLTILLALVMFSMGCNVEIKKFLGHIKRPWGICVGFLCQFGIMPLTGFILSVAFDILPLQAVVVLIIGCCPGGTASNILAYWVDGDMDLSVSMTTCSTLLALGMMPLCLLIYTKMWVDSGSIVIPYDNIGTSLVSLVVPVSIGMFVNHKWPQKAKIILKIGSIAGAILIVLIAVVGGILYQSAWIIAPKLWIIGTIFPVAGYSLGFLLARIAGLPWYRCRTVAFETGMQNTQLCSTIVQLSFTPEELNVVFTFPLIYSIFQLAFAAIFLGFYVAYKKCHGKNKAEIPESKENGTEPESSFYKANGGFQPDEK
T3 sequence (Q14973 whole entry): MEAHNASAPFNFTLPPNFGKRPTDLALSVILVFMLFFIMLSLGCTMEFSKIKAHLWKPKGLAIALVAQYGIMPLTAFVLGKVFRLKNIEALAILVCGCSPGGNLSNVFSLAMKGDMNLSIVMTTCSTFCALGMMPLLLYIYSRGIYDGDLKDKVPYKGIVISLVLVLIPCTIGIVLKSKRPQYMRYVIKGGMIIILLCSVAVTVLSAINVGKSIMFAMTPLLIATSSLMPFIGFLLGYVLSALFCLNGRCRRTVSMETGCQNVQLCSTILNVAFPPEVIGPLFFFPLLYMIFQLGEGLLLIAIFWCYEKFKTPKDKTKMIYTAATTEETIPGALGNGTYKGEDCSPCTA
T1 sequence (P80561 46-329): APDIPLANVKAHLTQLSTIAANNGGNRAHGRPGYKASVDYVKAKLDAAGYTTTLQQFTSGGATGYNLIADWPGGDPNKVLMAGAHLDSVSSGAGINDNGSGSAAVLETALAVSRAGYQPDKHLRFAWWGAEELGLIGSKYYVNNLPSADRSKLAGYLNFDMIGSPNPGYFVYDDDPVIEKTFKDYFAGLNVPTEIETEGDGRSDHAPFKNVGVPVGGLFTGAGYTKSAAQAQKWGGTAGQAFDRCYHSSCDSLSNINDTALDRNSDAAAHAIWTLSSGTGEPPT

Molecule: NC(Cc1ccccc1)C(=O)NCC1(CC(=O)O)CCCCC1 (stereo not shown) [Phe-Gabapentin]
- Percent of Gabapentin Released in 60 min [1]: 21%
- Percent of Gabapentin Released in 60 min (Aminopeptidase 1): 24%
- Percent of Gabapentin Released in 60 min [2]: 5%
- Percent of Gabapentin Released in 60 min [3]: 1%
- Percent of Gabapentin Released in 60 min [4]: 1%
- Percent of Gabapentin Released in 60 min [5]: 19%

Molecule: CC(CCC(=O)NC(Cc1ccc(O)cc1)C(=O)NCC1(CC(=O)O)CCCCC1)C1CCC2C3C(O)CC4CC(O)CCC4(C)C3CC(O)C12C (stereo not shown) [(7h), Cholyl-Tyr-Gabapentin]
- % (2) Released (pancreatin): 40%

Molecule: N[C@@H](CCC(=O)O)C(=O)N[C@@H](CSC(=O)CN1C(=O)c2ccccc2C1=O)C(=O)NCC(=O)O [Compound (61), H-Glu-Cys(N-phthaloylglycyl)-Gly-OH]
- time at which liberated N-phthaloylglycine is apparent in plasma [6]: ≤ 30 min

Molecule: Cholyl-Dopa-(4-pivaloyloxymethyl) [(21)]
- IC50 (IBAT [7]): 91 µM
- Percent of (20) Released in 60 min [2]: 95%
- Percent of (20) Released in 60 min [3]: 35%
- Percent of (20) Released in 60 min [8]: 90%
- Percent of (20) Released in 60 min [4]: 70%
- IC50 (LBAT): 0.2 µM
- % Max. (GDC) (IBAT [9]): 104%
- Percent of (20) Released in 60 min [5]: 75%
